Key:
JHH-7 cells (GPC3-high) = experiment: On-cell binding by flow cytometry; settings: 24 h at 4 °C
Procedure: Briefly, cells were seeded at 50,000 cells/well in V-bottom 96-well plates and treated with antibody for 24 hours at 4° C. to prevent internalization. […] Following incubation and washing, fluorescence was detected by flow cytometry on a BD LSRFortessa™ Cell Analyzer (BD Biosciences, Franklin Lake, NJ) with 1,000 minimum events collected per well. AF647/APC-A GeoMean (fluorescence signal geometric mean, proportional to anti-Human AF647 binding) in live cell population was plotted against antibody concentration using GraphPad Prism Version 9 (GraphPad Software, San Diego, CA). The Bmax, Curve Hill Slope (h) and Kd values were derived from the “Specific binding with Hill slope” nonlinear regression curve fit in GraphPad Prism Version 9.
The on-cell binding capabilities of light chain (LC)-modified M3-H18L6 antibody constructs were assessed on JHH-7 (hepatocellular carcinoma; GPC3-high) and JHH-5 (hepatocellular carcinoma; GPC3-mid) by flow cytometry as described below. […] The assay was carried out as described in Example 13.
Briefly, plasma stress was carried out by incubating M3-H18L6 LC-modified antibodies in mouse plasma (BioIVT, Westbury, NY; Cat. No. MSE00PL38NC-0103070) for 14 days in a 37° C./5% CO2 incubator. […] Following incubation and washing, fluorescence was detected by flow cytometry on a BD LSRFortessa™ Cell Analyzer (BD Biosciences, Franklin Lake, NJ) with 1,000 minimum events collected per well. AF647/APC-A GeoMean (fluorescence signal geometric mean, proportional to anti-Human AF647 binding) in live cell population was plotted against antibody concentration using GraphPad Prism Version 9 (GraphPad Software, San Diego, CA). […] Following incubation, cells were dissociated, washed, and surface AF488 fluorescence was quenched using an anti-AF488 antibody (Life Technologies, Carlsbad, CA; Cat. No. A-11094) at 100 nM for 30 minutes at 4° C. Quenched AF488 fluorescence (internalized fluorescence) was detected by flow cytometry on a BD LSRFortessa™ Cell Analyzer (BD Biosciences, Franklin Lake, NJ) with 1,000 minimum events collected per well.

[1] = system: Hep G2 cells (high GPC3-expressing); experiment: Internalization by flow cytometry (quenched AF488); assay type: cell-based; settings: antibody 10 nM
Procedure: (§1) Cells were seeded at 50,000 cells/well in 48-well plates and incubated overnight under standard culturing conditions (37° C./5% CO2) in Gibco™ Dulbecco's Modified Eagle Media (DMEM) (Thermo Fisher Scientific, Waltham, MA; Cat. No. 11995040) with 10% Fetal Bovine Serum (FBS) (Thermo Fisher Scientific, Waltham, MA; Cat. No. 12483020) for Hep G2 cells, and Gibco™ William's E Medium, GlutaMAX™ Supplement (Thermo Fisher Scientific, Waltham, MA; Cat. No. 32551020) with 10% FBS (Thermo Fisher Scientific, Waltham, MA; Cat. No. 12483020) for JHH-7 cells. Coupled antibodies were added to cells the following day at 10 nM or at 100 nM and incubated under standard culturing conditions for 5-24 hours to allow for internalization. Following incubation, cells were dissociated, washed, and surface AF488 fluorescence was quenched using an anti-AF488 antibody (Life Technologies, Carlsbad, CA; Cat. No. A-11094) at 100 nM for 30 minutes at 4° C. Quenched AF488 fluorescence (internalized fluorescence) was detected by flow cytometry on a BD LSRFortessa™ Cell Analyzer (BD Biosciences, Franklin Lake, NJ) with 1,000 minimum events collected per well.

HepG2 cells (GPC3-high) = experiment: On-cell binding by flow cytometry; settings: 24 h at 4 °C
Procedure: Briefly, cells were seeded at 50,000 cells/well in V-bottom 96-well plates and treated with antibody for 24 hours at 4° C. to prevent internalization. […] Following incubation and washing, fluorescence was detected by flow cytometry on a BD LSRFortessa™ Cell Analyzer (BD Biosciences, Franklin Lake, NJ) with 1,000 minimum events collected per well.

[2] = system: JHH-7 cells (high GPC3-expressing); experiment: Internalization by flow cytometry (quenched AF488); assay type: cell-based; settings: antibody 10 nM
Procedure: as §1
as §1, with “CO2)” for “CO2) in Gibco™ Dulbecco's Modified Eagle Media (DMEM) (Thermo Fisher Scientific, Waltham, MA; Cat. No. 11995040) with 10% Fetal Bovine Serum (FBS) (Thermo Fisher Scientific, Waltham, MA; Cat. No. 12483020) for Hep G2 cells, and”, “12483020).” for “12483020) for JHH-7 cells.”, “5” for “10 nM or at 100”, “24” for “5-24”, “well. […]” for “well.”

palivizumab [v22277 (palivizumab)]
> 60 nM: Kd (JHH-7 cells (GPC3-high)) | Kd (HepG2 cells (GPC3-high))
1.0 fold: Internalized fluorescence, fold increase over palivizumab, Hep G2, 5 hours ([1]; 5 hours) | Internalized fluorescence, fold increase over palivizumab, Hep G2, 24 hours ([1]; 24 hours) | Internalized fluorescence, fold increase over palivizumab, JHH-7, 5 hours ([2]; 5 hours) | Internalized fluorescence, fold increase over palivizumab, JHH-7, 24 hours ([2]; 24 hours)
